Compound: C[C@H]([C@@H](C(=O)N)NC(=O)[C@@H]1CSSC[C@@H](C(=O)N[C@H](C(=O)N[C@@H](C(=O)N[C@H](C(=O)N1)CCCCN)CC2=CNC3=CC=CC=C32)CC4=CC=C(C=C4)O)NC(=O)[C@@H](CC5=CC=CC=C5)N)O [CAP-232] + CC(=O)c1c(C)c2cnc(Nc3ccc(N4CCNCC4)cn3)nc2n(C2CCCC2)c1=O [Palbociclib] (partner 0.5 µM)
Test: relative viability (nuclei count vs DMSO), 5 days (fraction); higher = more cells survive
Outline: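 Relative viability equals treated-well nuclei counts divided by vehicle-well nuclei counts. Counts came from 4× images of lung cancer cell lines grown in 1536-well plates for 5 days after pin-tool dosing on the day after seeding. Dosing used one drug alone or a fixed anchor-drug dose plus five library-drug doses (not always all listed) in √10 steps, and values are medians of duplicate plates.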

Cell Line | relative viability (first compound 0.4 µM) | relative viability (first compound 1.265 µM) | relative viability (first compound 4 µM) | relative viability (first compound 12.65 µM)
EMC-BAC-2 | 0.507 | 0.512 | 0.491 | 0.427
NCI-H661 | 0.415 | 0.403 | 0.433 | 0.35
LU99A | 0.392 | 0.375 | 0.407 | 0.505
LK-2 | 0.595 | 0.802 | 0.576 | 0.783
NCI-H3122 | 0.178 | 0.181 | 0.187 | 0.214
NCI-H2347 | 0.453 | 0.462 | 0.412 | 0.423
HCC-827 | 0.423 | 0.498 | 0.461 | 0.514
NCI-H1666 | 0.715 | 0.636 | 0.655 | 0.67
NCI-H358 | 0.22 | 0.125 | 0.14 | 0.153
201T | 0.357 | 0.354 | 0.317 | 0.376
RERF-LC-KJ | 1.43 | 1.12 | 0.908 | 0.747
NCI-H2405 | 0.553 | 0.563 | 0.536 | 0.369
LXF-289 | 0.611 | 0.625 | 0.58 | 0.62
EKVX | 0.387 | 0.339 | 0.262 | 0.262
A-427 | 0.528 | 0.554 | 0.508 | 0.467
ChaGo-K-1 | 0.964 | 0.932 | 1.01 | 0.932
NCI-H2342 | 0.45 | 0.509 | 0.497 | 0.487
SK-MES-1 | 0.324 | 0.292 | 0.278 | 0.258
LCLC-97TM1 | 0.243 | 0.22 | 0.187 | 0.248
NCI-H2170 | 0.358 | 0.38 | 0.429 | 0.424
NCI-H1993 | 0.701 | 0.586 | 0.62 | 0.602
NCI-H460 | 0.246 | 0.148 | 0.155 | 0.0823
NCI-H1975 | 0.664 | 0.486 | 0.74 | 0.324
SK-LU-1 | 0.375 | 0.398 | 0.405 | 0.364

Cell Line | relative viability (first compound 0.4 µM) | relative viability (first compound 1.265 µM) | relative viability (first compound 4 µM) | relative viability (first compound 12.65 µM)
NCI-H322M | 0.494 | 0.427 | 0.446 | 0.508
NCI-H1651 | 0.561 | 0.525 | 0.511 | 0.522
HARA | 0.236 | 0.31 | 0.246 | 0.265
H3255 | 0.314 | 0.32 | 0.329 | 0.282
NCI-H441 | 0.209 | 0.19 | 0.257 | 0.214
CAL-12T | 0.422 | 0.552 | 0.376 | 0.179
ABC-1 | 0.641 |  | 0.691 | 0.513
NCI-H1792 | 0.893 | 0.694 | 0.669 | 0.545
NCI-H1437 | 0.293 | 0.312 | 0.315 | 0.303
HOP-62 | 0.491 | 0.42 | 0.436 | 0.386
EPLC-272H | 0.342 | 0.292 | 0.297 | 0.296
COR-L 105 | 0.395 | 0.401 | 0.384 | 0.387
HCC-366 | 0.454 | 0.362 | 0.41 | 0.331
HCC-44 | 1 | 1.05 | 0.92 | 0.937
NCI-H2009 | 0.181 | 0.244 | 0.175 | 0.153
NCI-H23 | 0.437 | 0.478 | 0.523 | 0.567
NCI-H838 | 0.228 | 0.205 | 0.237 | 0.212
NCI-H1355 | 0.42 | 0.413 | 0.432 | 0.343
NCI-H1944 | 0.393 | 0.31 | 0.326 | 0.325
NCI-H2023 | 0.377 | 0.353 | 0.346 | 0.157
NCI-H1650 | 0.306 | 0.304 | 0.38 | 0.243
NCI-H1395 | 0.679 |  | 0.665 | 0.578
NCI-H2087 | 0.214 | 0.225 | 0.218 | 0.226
PC-14 | 0.675 | 0.507 | 0.538 | 0.412

Cell Line | relative viability (first compound 0.4 µM) | relative viability (first compound 1.265 µM) | relative viability (first compound 4 µM) | relative viability (first compound 12.65 µM)
NCI-H1793 | 0.401 | 0.313 | 0.303 | 0.324
LC-2-ad | 0.478 | 0.517 | 0.473 | 0.513
HCC-78 | 0.481 | 0.496 | 0.552 | 0.49
NCI-H522 | 0.982 | 0.929 | 1.05 | 0.848
LOU-NH91 | 0.525 | 0.482 | 0.522 | 0.39
NCI-H1734 | 0.34 | 0.336 | 0.368 | 0.233
NCI-H520 | 0.241 | 0.224 | 0.249 | 0.234
NCI-H727 | 0.528 | 0.65 | 0.558 | 0.701
NCI-H1755 | 0.474 | 0.406 | 0.48 | 0.413
SW 1573 | 0.313 | 0.392 | 0.406 | 0.201
NCI-H647 | 0.34 | 0.358 | 0.404 | 0.284
UMC-11 | 0.346 | 0.349 | 0.311 | 0.341
HCC-15 | 0.754 | 0.763 | 0.567 | 0.567
NCI-H2126 | 0.345 | 0.315 | 0.341 | 0.359
NCI-H2085 | 0.465 | 0.495 | 0.447 | 0.5
SW 900 | 0.528 | 0.481 | 0.512 | 0.465
BEN | 0.516 | 0.46 | 0.456 | 0.448
NCI-H650 | 0.358 | 0.306 | 0.271 | 0.285
LCLC-103H | 0.469 | 0.429 | 0.487 | 0.485
PC-3 [JPC-3] | 0.583 | 0.542 | 0.545 | 0.555
NCI-H2228 | 1.06 | 0.803 | 0.971 | 0.632
COR-L23 | 0.338 | 0.29 | 0.304 | 0.255
NCI-H1915 | 0.5 | 0.538 | 0.524 | 0.511
